Measured values reported in patent US20250101025A1, “NOVEL PLK1 DEGRADATION INDUCING COMPOUND” (UPPTHERA, INC., priority 2021, published 2025).
Read-outs that look alike come from different tables or passages of the source.

Key:
Format in all cases: cell-based
[1] = biological target: T1, PLK1 (Homo sapiens, UniProt P53350); test: Luciferase assay for PLK1 in HeLa LgBit (Plk1-HiBit KI) cell line; conditions: compound 300 nM, luminescence after 9 hours
T1 construct: endogenous in cells; host or cells: HeLa LgBit (Plk1-HiBit KI): HeLa stably expressing LgBit, with HiBit knocked in at the endogenous Plk1 locus by CRISPR/Cas9
T1 sequence (P53350 whole entry): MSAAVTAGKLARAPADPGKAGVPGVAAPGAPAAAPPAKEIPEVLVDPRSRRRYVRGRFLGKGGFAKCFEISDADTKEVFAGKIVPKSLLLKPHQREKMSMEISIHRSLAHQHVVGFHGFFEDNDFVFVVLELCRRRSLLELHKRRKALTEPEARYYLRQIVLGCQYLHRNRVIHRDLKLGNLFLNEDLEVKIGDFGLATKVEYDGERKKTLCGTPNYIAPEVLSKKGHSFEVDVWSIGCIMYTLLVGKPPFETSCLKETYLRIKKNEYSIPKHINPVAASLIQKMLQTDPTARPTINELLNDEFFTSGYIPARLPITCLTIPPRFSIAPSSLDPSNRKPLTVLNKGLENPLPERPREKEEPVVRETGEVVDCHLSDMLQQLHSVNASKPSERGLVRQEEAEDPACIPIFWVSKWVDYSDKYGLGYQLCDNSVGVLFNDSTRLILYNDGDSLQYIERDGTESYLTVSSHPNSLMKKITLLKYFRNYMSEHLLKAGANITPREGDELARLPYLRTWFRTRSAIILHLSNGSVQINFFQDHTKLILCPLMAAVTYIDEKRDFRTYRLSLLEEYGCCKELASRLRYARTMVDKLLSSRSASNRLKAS
Protocol: 2. Luciferase Assay for PLK1
(1) Preparation and Culture of HeLa LgBit (Plk1-HiBit KI) Cell Line
A HeLa cell line in which the LgBit vector was transfected and expressed stably was prepared. Then, after constructing gRNA and donor to express the HiBit amino acid sequence behind the C-terminal of the Plk1 gene, which was inherent in the cell, it was inserted into the cell together with a vector capable of expressing CRISPR/Cas9. Only the cells in which the insertion was completed and knock-in had progressed were selected, sub-cultured and used.
(2) Treatment of Compounds of the Present Invention and Method of Luciferase Assay
In the case of HeLa LgBit (Plk1-HiBit KI), the compounds were treated after being released after thymidine block, and the process was as follows. Thymidine (Sigma-Aldrich Cat. No. T9250-5G) was completely dissolved in DW and used in the experiment. For thymidine block, the products were treated with 2 mM of thymidine and then incubated for 24 hours. For release and chemical treatment, the medium was suctioned and washed with 1×PBS. TrypLE™ was added and incubated in 37° C. CO2 incubator for 5 min. Cells neutralized by adding complete media were counted through a counter. For each well of a 96-well culture plate (SPL), 3.3×10^4 cells and a total medium volume of 150 μL were seeded and incubated in a CO2 incubator.
Each cell line was incubated in a CO2 incubator for 18 hours, and Endurazine was added to each well to make up 4% of the total volume. After adding the compound of the present invention in a 96-well white plate (SPL) to a concentration of 300 nM, the wavelength of the plate reader (BMG Labtech, CLARIOstar Plus) was set to […], and then the luminescence was tracked in real time.
In Table 2, Activity represents the ratio of the luminescence value of each Exemplary Compound treatment group to DMSO treatment group (+++: <0.3, ++<0.6, +<0.7).

[2] = system: H526 cell line; test: Cell viability assay for NCI-H526 cell line (EZ-Cytox); conditions: Homo sapiens, NCI-H526, 120 h; H526 cells, 3-fold dilutions 3000 nM to 0.46 nM, 5 days
Protocol: (1) Culture of NCI-H526 Cell Line
(2) Treatment of Compounds of the Present Invention and Method of Cell Viability Assay
After treating the compound to each well to make the total volume of 200 μL, it was cultured in a CO2 incubator (Thermo Fisher Science, Cat. No. 4111) for 5 days.
The absorbance of the completely cultured sample was measured by setting the wavelength of a plate reader (BMG Labtech, CLARIOstar Plus) to […], and was measured after shaking for 3 minutes in a plate reader before measurement.
In Table 3, Activity represents IC50 value of each Exemplary Compound treatment group to H526 cell line (A: <30 nM, B: <50 nM, C: <100 nM, D: <200 nM, E: <400 nM).

[3] = system: MRC-5 cell line; test: Cell viability assay for MRC-5 cell line (EZ-Cytox cytotoxicity experiment); conditions: Homo sapiens, MRC5, 120 h, MRC-5 normal cell line, 5 days
Protocol: 4. Cell Viability Assay for MRC-5 Cell Line
(1) Culture of MRC-5 Cell Line
Passage of cultured cells was maintained within P15.
(2) Treatment of Compounds of the Present Invention
Then, it was cultured in 37° C.
(3) Cytotoxicity Experiment
CO2 incubator for 4 hours.

[4] = 3-fold dilutions 10000 nM to 1.52 nM, Exemplary Compounds, numeric values, read-out: Activity: IC50 value (nM) to MRC-5 cell line
[5] = highest concentration 10000 nM, N.D. = no cytotoxicity until 10 μM, read-out: Activity: IC50 value to MRC-5 cell line, N.D. cells

Row | Compound | Activity: ratio of the luminescence value of each Exemplary Compound treatment group to DMSO treatment group [1] | IC50 [2] | IC50 [3, 4] | IC50 [3, 5]
1 | COc1cc(C(=O)NC2CC3(CCN(CC4CCN(c5ccc(OC6CCC(=O)NC6=O)cc5F)CC4)CC3)C2)ccc1Nc1ncc2c(n1)N(C(C)C)CC(F)(F)C(=O)N2C (stereo not drawn) [Compound 35, 4-((7,7-difluoro-9-isopropyl-5-methyl-6-oxo-6,7,8,9-tetrahydro-5H-pyrimido[4,5-b][1,4]diazepin-2-yl)amino)-N-(7-((1-(4-((2,6-dioxopiperidin-3-yl)oxy)-2-fluorophenyl)piperidin-4-yl)methyl)-7-azaspiro[3.5]nonan-2-yl)-3-methoxybenzamide] | +++ (+++: <0.3) | < 50 nM | 16900 nM | 
2 | COc1cc(C(=O)NC2CC3(CCN(CC4CCN(c5ccc(NC6CCC(=O)NC6=O)cc5F)CC4)CC3)C2)ccc1Nc1ncc2c(n1)N(C(C)C)CC(F)(F)C(=O)N2C (stereo not drawn) [Compound 24, 4-((7,7-difluoro-9-isopropyl-5-methyl-6-oxo-6,7,8,9-tetrahydro-5H-pyrimido[4,5-b][1,4]diazepin-2-yl)amino)-N-(7-((1-(4-((2,6-dioxopiperidin-3-yl)amino)-2-fluorophenyl)piperidin-4-yl)methyl)-7-azaspiro[3.5]nonan-2-yl)-3-methoxybenzamide] | +++ (+++: <0.3) | < 30 nM | 23200 nM | 
3 | COc1cc(C(=O)NN2CCC(CN3CCN(c4ccc(NC5CCC(=O)NC5=O)cc4C(F)(F)F)CC3)CC2)ccc1Nc1ncc2c(n1)N(C(C)C)CC(F)(F)C(=O)N2C (stereo not drawn) [Compound 21, 4-((7,7-difluoro-9-isopropyl-5-methyl-6-oxo-6,7,8,9-tetrahydro-5H-pyrimido[4,5-b][1,4]diazepin-2-yl)amino)-N-(4-((4-(4-((2,6-dioxopiperidin-3-yl)amino)-2-(trifluoromethyl)phenyl)piperazin-1-yl)methyl)piperidin-1-yl)-3-methoxybenzamide] | ++ (++<0.6) | < 100 nM |  | > 10000 nM
4 | COc1cc(C(=O)NC2CCN(CCC3CCN(c4cccc5c4n(C)c(=O)n5C4CCC(=O)NC4=O)CC3)CC2)ccc1Nc1ncc2c(n1)N(C1CCCC1)CC(F)(F)C(=O)N2C (stereo not drawn) [Compound 37, 4-((9-cyclopentyl-7,7-difluoro-5-methyl-6-oxo-6,7,8,9-tetrahydro-5H-pyrimido[4,5-b][1,4]diazepin-2-yl)amino)-N-(1-(2-(1-(1-(2,6-dioxopiperidin-3-yl)-3-methyl-2-oxo-2,3-dihydro-1H-benzo[d]imidazol-4-yl)piperidin-4-yl)ethyl)piperidin-4-yl)-3-methoxybenzamide] | ++ (++<0.6) | < 50 nM |  | > 10000 nM
5 | COc1cc(C(=O)NC2CCN(C(=O)CCN3CCN(c4cccc(C(=O)NC5CCC(=O)NC5=O)c4F)CC3)CC2)ccc1Nc1ncc2c(n1)N(C1CCCC1)CC(F)(F)C(=O)N2C (stereo not drawn) [Compound 6, 3-(4-(3-(4-(4-((9-cyclopentyl-7,7-difluoro-5-methyl-6-oxo-6,7,8,9-tetrahydro-5H-pyrimido[4,5-b][1,4]diazepin-2-yl)amino)-3-methoxybenzamido)piperidin-1-yl)-3-oxopropyl)piperazin-1-yl)-N-(2,6-dioxopiperidin-3-yl)-2-fluorobenzamide] | ++ (++<0.6) | < 50 nM |  | > 10000 nM
6 | COc1cc(C(=O)NN2CCC(CN3CCN(c4ccc(NC5CCC(=O)NC5=O)cc4Cl)CC3)CC2)ccc1Nc1ncc2c(n1)N(C(C)C)CC(F)(F)C(=O)N2C (stereo not drawn) [Compound 19, N-(4-((4-(2-chloro-4-((2,6-dioxopiperidin-3-yl)amino)phenyl)piperazin-1-yl)methyl)piperidin-1-yl)-4-((7,7-difluoro-9-isopropyl-5-methyl-6-oxo-6,7,8,9-tetrahydro-5H-pyrimido[4,5-b][1,4]diazepin-2-yl)amino)-3-methoxybenzamide] | + (+<0.7) | < 50 nM |  | > 10000 nM
7 | COc1cc(C(=O)NN2CCC(N3CC4(CCN(c5ccc(N(C)C6CCC(=O)NC6=O)cc5F)CC4)C3)CC2)ccc1Nc1ncc2c(n1)N(C(C)C)CC(F)(F)C(=O)N2C (stereo not drawn) [Compound 33, 4-((7,7-difluoro-9-isopropyl-5-methyl-6-oxo-6,7,8,9-tetrahydro-5H-pyrimido[4,5-b][1,4]diazepin-2-yl)amino)-N-(4-(7-(4-((2,6-dioxopiperidin-3-yl)(methyl)amino)-2-fluorophenyl)-2,7-diazaspiro[3.5]nonan-2-yl)piperidin-1-yl)-3-methoxybenzamide] | ++ (++<0.6) | < 50 nM | 25000 nM | 

The next lines start with results.

Row | Activity: ratio of the luminescence value of each Exemplary Compound treatment group to DMSO treatment group [1] | Compound | IC50 [2] | IC50 [3, 4] | IC50 [3, 5]
8 | +++ (+++: <0.3) | COc1cc(C(=O)NCC2CC3(CCN(CC4CCN(c5c(F)cc(NC6CCC(=O)NC6=O)cc5F)CC4)CC3)C2)ccc1Nc1ncc2c(n1)N(C(C)C)CC(F)(F)C(=O)N2C (stereo not drawn) [Compound 30, 4-((7,7-difluoro-9-isopropyl-5-methyl-6-oxo-6,7,8,9-tetrahydro-5H-pyrimido[4,5-b][1,4]diazepin-2-yl)amino)-N-((7-((1-(4-((2,6-dioxopiperidin-3-yl)amino)-2,6-difluorophenyl)piperidin-4-yl)methyl)-7-azaspiro[3.5]nonan-2-yl)methyl)-3-methoxybenzamide] | < 30 nM | 7870 nM | 
9 | +++ (+++: <0.3) | COc1cc(C(=O)NC2CC3(CCN(CC4CCN(c5ccc(OC6CCC(=O)NC6=O)cc5)CC4)CC3)C2)ccc1Nc1ncc2c(n1)N(C(C)C)CC(F)(F)C(=O)N2C (stereo not drawn) [Compound 36, 4-((7,7-difluoro-9-isopropyl-5-methyl-6-oxo-6,7,8,9-tetrahydro-5H-pyrimido[4,5-b][1,4]diazepin-2-yl)amino)-N-(7-((1-(4-((2,6-dioxopiperidin-3-yl)oxy)phenyl)piperidin-4-yl)methyl)-7-azaspiro[3.5]nonan-2-yl)-3-methoxybenzamide] | < 30 nM | 9800 nM | 
10 | ++ (++<0.6) | COc1cc(C(=O)NC2CCN(C(=O)CCN3CCN(c4cccc(NC5CCC(=O)NC5=O)c4)CC3)CC2)ccc1Nc1ncc2c(n1)N(C1CCCC1)CC(F)(F)C(=O)N2C (stereo not drawn) [Compound 14, 4-((9-cyclopentyl-7,7-difluoro-5-methyl-6-oxo-6,7,8,9-tetrahydro-5H-pyrimido[4,5-b][1,4]diazepin-2-yl)amino)-N-(1-(3-(4-(3-((2,6-dioxopiperidin-3-yl)amino)phenyl)piperazin-1-yl)propanoyl)piperidin-4-yl)-3-methoxybenzamide] | < 30 nM |  | > 10000 nM
11 | ++ (++<0.6) | COc1cc(C(=O)NC2CCN(C(=O)CCCNc3ccc(C(=O)NC4CCC(=O)NC4=O)cc3)CC2)c(F)cc1Nc1ncc2c(n1)N(C1CCCC1)CC(F)(F)C(=O)N2C (stereo not drawn) [Compound 1, 4-((9-cyclopentyl-7,7-difluoro-5-methyl-6-oxo-6,7,8,9-tetrahydro-5H-pyrimido[4,5-b][1,4]diazepin-2-yl)amino)-N-(1-(4-((4-((2,6-dioxopiperidin-3-yl)carbamoyl)phenyl)amino)butanoyl)piperidin-4-yl)-2-fluoro-5-methoxybenzamide] | < 50 nM |  | > 10000 nM
